Data reported in US20030166932A1 (priority 2002, published 2003).

How the values were obtained:
[1] = molecular target: T1, RXRα (Homo sapiens, UniProt P19793); assay: ligand binding assay
T1 sequence (P19793 1-462): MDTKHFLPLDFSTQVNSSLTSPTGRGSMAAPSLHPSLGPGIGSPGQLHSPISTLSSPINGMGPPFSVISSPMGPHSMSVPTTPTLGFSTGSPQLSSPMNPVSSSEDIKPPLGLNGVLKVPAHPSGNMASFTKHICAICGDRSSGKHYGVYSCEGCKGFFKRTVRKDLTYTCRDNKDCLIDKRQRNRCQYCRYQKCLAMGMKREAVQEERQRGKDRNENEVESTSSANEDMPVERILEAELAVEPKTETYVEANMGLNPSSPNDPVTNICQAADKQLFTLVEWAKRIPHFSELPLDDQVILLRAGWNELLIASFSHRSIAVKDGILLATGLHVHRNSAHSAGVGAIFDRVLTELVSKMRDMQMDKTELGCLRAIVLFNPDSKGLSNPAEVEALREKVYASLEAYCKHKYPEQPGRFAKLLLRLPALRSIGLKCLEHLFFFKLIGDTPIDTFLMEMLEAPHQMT
From the text: (§1) The results obtained in this assay are expressed in EC50 numbers, as they are also in the chimeric receptor transactivation assay. The results of ligand binding assay are expressed in Kd numbers.
(§2) Particularly, the transactivation data pertaining to RAR receptors were obtained in the chimeric assay, and the data pertaining to transactivation of RXR receptors were obtained in the holoreceptor transactivation assay.

[2] = molecular target: T2, RARγ (Homo sapiens, UniProt P13631); assay: ligand binding assay; conditions: read-out: RAR Bind. Ki (nM) Y
T2 sequence (P13631 1-454): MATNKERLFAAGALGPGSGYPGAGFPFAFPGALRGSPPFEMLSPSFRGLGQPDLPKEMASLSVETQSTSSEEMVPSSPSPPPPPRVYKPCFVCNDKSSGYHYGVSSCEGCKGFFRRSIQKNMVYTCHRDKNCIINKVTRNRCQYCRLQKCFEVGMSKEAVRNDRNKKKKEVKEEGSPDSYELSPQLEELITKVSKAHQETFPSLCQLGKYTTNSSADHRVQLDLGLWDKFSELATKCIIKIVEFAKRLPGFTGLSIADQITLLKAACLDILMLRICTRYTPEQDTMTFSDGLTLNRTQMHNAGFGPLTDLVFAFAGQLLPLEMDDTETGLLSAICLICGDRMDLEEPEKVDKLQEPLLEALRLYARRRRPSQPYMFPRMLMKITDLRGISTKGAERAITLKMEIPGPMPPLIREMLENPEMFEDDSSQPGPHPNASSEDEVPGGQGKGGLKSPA
From the text: as §1, §2

[3] = molecular target: T1, RXRα; assay: holoreceptor transactivation assay; conditions: for Emax: read-out: % efficacy, RXR Trans. α
From the text: as §1, §2

[4] = molecular target: T3, RARβ (Homo sapiens, UniProt P10826); assay: ligand binding assay; conditions: read-out: RAR Bind. Ki (nM) β
T3 sequence (P10826 1-455): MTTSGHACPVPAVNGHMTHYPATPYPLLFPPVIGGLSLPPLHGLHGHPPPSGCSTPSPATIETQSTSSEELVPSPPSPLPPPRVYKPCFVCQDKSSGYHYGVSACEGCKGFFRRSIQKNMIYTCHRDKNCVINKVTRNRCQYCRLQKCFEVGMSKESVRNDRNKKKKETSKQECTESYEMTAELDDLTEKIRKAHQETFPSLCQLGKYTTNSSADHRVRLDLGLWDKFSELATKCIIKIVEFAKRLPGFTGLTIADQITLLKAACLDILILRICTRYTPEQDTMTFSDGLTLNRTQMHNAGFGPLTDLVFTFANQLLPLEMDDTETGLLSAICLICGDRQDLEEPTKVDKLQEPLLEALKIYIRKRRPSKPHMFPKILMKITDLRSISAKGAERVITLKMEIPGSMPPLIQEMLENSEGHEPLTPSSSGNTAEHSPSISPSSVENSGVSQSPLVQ
From the text: as §1, §2

[5] = molecular target: T4, RXRγ (UniProt P28705); assay: ligand binding assay; conditions: read-out: RXR Bind Ki (nM) Y
T4 sequence (P28705 1-463): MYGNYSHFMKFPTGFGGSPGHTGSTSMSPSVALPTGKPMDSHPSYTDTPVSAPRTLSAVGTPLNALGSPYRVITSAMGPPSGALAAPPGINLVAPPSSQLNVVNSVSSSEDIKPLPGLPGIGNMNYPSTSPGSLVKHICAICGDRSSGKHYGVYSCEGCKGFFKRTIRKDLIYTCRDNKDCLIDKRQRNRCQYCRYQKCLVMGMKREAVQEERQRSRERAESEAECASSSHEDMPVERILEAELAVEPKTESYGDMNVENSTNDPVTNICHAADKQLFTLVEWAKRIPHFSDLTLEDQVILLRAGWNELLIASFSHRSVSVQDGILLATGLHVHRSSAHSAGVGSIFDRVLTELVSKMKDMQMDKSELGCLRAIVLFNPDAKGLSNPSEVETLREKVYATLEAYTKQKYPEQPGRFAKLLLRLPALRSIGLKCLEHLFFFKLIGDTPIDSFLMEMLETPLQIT

[6] = molecular target: T4, RXRγ; assay: holoreceptor transactivation assay; format: cell-based; conditions: for EC50: NA = Not Active, read-out: RXR Trans. EC50 (nM) Y; for % efficacy, RXR Trans. Y: relative to 10^−6 M AGN 194204
From the text: as §1, §2

[7] = molecular target: T5, RXRβ (UniProt P28704); assay: ligand binding assay; conditions: read-out: RXR Bind Ki (nM) β
T5 sequence (P28704 1-520): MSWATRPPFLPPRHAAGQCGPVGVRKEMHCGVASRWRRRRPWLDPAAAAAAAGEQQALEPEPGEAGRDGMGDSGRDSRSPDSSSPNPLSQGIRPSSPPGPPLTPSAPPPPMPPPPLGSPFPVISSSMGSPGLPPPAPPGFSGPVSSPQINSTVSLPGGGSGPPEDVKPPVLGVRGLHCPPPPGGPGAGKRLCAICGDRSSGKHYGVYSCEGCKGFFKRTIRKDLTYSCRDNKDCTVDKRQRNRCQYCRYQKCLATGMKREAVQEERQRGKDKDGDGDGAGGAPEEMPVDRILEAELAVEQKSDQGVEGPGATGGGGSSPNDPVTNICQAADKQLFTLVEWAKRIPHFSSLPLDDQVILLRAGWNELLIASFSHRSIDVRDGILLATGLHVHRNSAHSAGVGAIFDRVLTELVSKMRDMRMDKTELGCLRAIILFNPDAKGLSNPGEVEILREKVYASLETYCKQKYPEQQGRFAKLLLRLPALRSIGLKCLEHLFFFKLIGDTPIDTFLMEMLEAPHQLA
From the text: as §1, §2

[8] = molecular target: T5, RXRβ; assay: holoreceptor transactivation assay; format: cell-based; conditions: for EC50: NA = Not Active, read-out: RXR Trans. EC50 (nM) β; for % efficacy, RXR Trans. β: relative to 10^−6 M AGN 194204
From the text: as §1, §2

SMILES | Ki [1] [nM] | Ki [2] [nM] | EC50 [3] [nM] | Emax [3] [%] | Ki [4] [nM] | Ki [5] [nM] | EC50 [6] [nM] | % efficacy, RXR Trans. Y [6] | Ki [7] [nM] | EC50 [8] [nM] | % efficacy, RXR Trans. β [8]
CC1=CCC(C)(C)c2cc(N(C)c3ccc(C(=O)O)cc3)ccc21 [Compound 67, 4-[Methyl-(5,8,8-trimethyl-7,8-dihydro-naphthalen-2-yl)-amino]-benzoic acid] | 666 | – | – | – | > 10000 | 1300 | – | – | > 1000 | – | –
CCC1=CCC(C)(C)c2cc(N(CC)c3ccc(C(=O)O)cc3)ccc21 [Compound 75, 4-[Ethyl-(5-ethyl-8,8-dimethyl-7,8-dihydro-naphthalen-2-yl)-amino]-benzoic acid] | 442 | > 10000 | 319 | 100 | > 10000 | – | – | (95) % | 806 | – | (75) %
CCCCOc1cc2c(cc1N(CC)c1ccc(C(=O)O)cc1)C(C(C)C)=CCC2(C)C [Compound 152, 4-[(3-n-Butoxy-8-isopropyl-5,5-dimethyl-5,6-dihydronaphthalen-2-yl)ethylamino]benzoic acid] | 29 | – | – | – | 2300 | 437 | – | – | 136 | – | –
CCN(c1ccc(C(=O)O)cc1)c1cc2c(cc1OCc1ccccc1)C(C)(C)CC=C2C(C)C [Compound 154, 4-[(3-Benzyloxy-8-isopropyl-5,5-dimethyl-5,6-dihydronaphthalen-2-yl)ethylamino]benzoic acid] | 3 | 6200 | – | – | 1800 | 41 | – | – | 19 | – | –
CCN(c1ccc(C(=O)O)cc1)c1cc2c(cc1OCc1cc(C(C)(C)C)cc(C(C)(C)C)c1)C(C)(C)CC=C2C(C)C [Compound 156, 4-{[3-(3,5-di-t-butylbenzyloxy)-8-isopropyl-5,5-dimethyl-5,6-dihydronaphthalen-2-yl]ethylamino}benzoic acid] | 804 | 4200 | – | – | 1500 | > 1000 | – | – | > 1000 | – | –
CCN(c1ccc(C(=O)O)cc1)c1cc2c(cc1OCc1ccccc1)C(C)(C)CC=C2C(C)(C)C [Compound 158] | 4 | 881 | – | – | 374 | 161 | – | – | 3 | – | –

Second part, the molecule after the results:

Ki [1] [nM] | Ki [2] [nM] | EC50 [3] [nM] | Emax [3] [%] | Ki [4] [nM] | Ki [5] [nM] | EC50 [6] [nM] | % efficacy, RXR Trans. Y [6] | Ki [7] [nM] | EC50 [8] [nM] | % efficacy, RXR Trans. β [8] | SMILES
> 1000 | > 10000 | > 1000 | 30 | > 10000 | > 1000 | > 1000 | (15) % | > 1000 | – | – | CC1=CCC(C)(C)c2cc(N(C)c3ccc(C(=O)O)cc3)c(C)cc21 [Compound 44, 4-[Methyl(3,5,8,8-tetramethyl-7,8-dihydronaphthalen-2-yl)amino]benzoic acid]
> 1000 | > 10000 | – | 50 | > 10000 | > 1000 | > 1000 | (25) % | > 1000 | – | – | CCN(c1ccc(C(=O)O)cc1)c1cc2c(cc1C)C(C)=CCC2(C)C [Compound 45, 4-[Ethyl(3,5,8,8-tetramethyl-7,8-dihydronaphthalen-2-yl)amino]benzoic acid]
> 10000 | > 10000 | – | 55 | > 10000 | > 10000 | – | (65) % | > 10000 | > 1000 | (8) % | CCCN(c1ccc(C(=O)O)cc1)c1cc2c(cc1C)C(C)=CCC2(C)C [Compound 46, 4-[n-Propyl(3,5,8,8-tetramethyl-7,8-dihydronaphthalen-2-yl)amino]benzoic acid]
485 | > 10000 | 378 | 66 | > 10000 | – | – | (85) % | > 1000 | > 1000 | (40) % | CCCN(c1ccc(C(=O)O)cc1)c1cc2c(cc1C)C(C(C)C)=CCC2(C)C [Compound 54, 4-[n-Propyl-(5-isopropyl-3,8,8-trimethyl-7,8-dihydronaphthalen-2-yl)lamino]benzoic acid]
64 | – | 72 | 88 | > 10000 | 101 | 182 | (124) % | 426 | – | (60) % | CCN(c1ccc(C(=O)O)cc1)c1cc2c(cc1C)C(C(C)(C)C)=CCC2(C)C [Compound 60, 4-[Ethyl-(5-t-butyl-3,8,8-trimethyl-7,8-dihydronaphthalen-2-yl)amino]benzoic acid]
7 | – | 1 | 108 | > 10000 | 8 | 1 | 105) % | 34 | 8 | (93) % | CCCN(c1ccc(C(=O)O)cc1)c1ccc2c(c1)C(C(C)(C)C)=CCC2(C)C [Compound 89]
61 | 7900 | – | – | 3800 | 352 | – | – | 208 | – | – | CCCOc1cc2c(cc1N(CC)c1ccc(C(=O)O)cc1)C(C(C)C)=CCC2(C)C [Compound 150, 4-[Ethyl-(8-isopropyl-5,5-dimethyl-3-n-propoxy-5,6-dihydronaphthalen-2-yl)amino]benzoic acid]
54 | > 10000 | – | – | 1200 | 248 | – | – | 155 | – | – | CCN(c1ccc(C(=O)O)cc1)c1cc2c(cc1OC(C)C)C(C)(C)CC=C2C(C)C [Compound 151, 4-[Ethyl-(3-isopropoxy-5,5-dimethyl-8-isopropyl-5,6-dihydronaphthalen-2-yl)amino]benzoic acid]
3 | 2900 | – | – | 1400 | 398 | – | – | 334 | – | – | CCN(c1ccc(C(=O)O)cc1)c1cc2c(cc1OCc1ccc(C)cc1)C(C)(C)CC=C2C(C)C [Compound 155, 4-{Ethyl-[8-isopropyl-5,5-dimethyl-3-(4-methylbenzyloxy)-5,6-dihydronaphthalen-2-yl]amino}benzoic acid]
